From patent US20120004228A1, “Bis Aromatic Compounds for Use as LTC4 Synthase Inhibitors” (BIOLIPOX AB, priority 2009, published 2012)

Target: T1, Recombinant human LTC4 synthase (Homo sapiens, UniProt Q16873)
T1 construct: made in house; host or cells: Pichia pastoris ('Piccia pastoralis' [sic])
T1 sequence (Q16873 1-150): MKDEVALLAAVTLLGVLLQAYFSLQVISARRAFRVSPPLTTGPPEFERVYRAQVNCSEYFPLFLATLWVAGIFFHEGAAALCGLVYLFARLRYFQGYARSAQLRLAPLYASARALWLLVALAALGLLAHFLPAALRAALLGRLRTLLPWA
Experiment: In vitro LTC4 synthase assay (LTA4 to LTC4, HTRF detection)
Type: biochemical
Details: not given
Method: In the assay, LTC4 synthase catalyses the reaction where the substrate LTA4 is converted to LTC4. Recombinant human LTC4 synthase is expressed in Piccia pastoralis and the purified enzyme is dissolved in 25 mM tris-buffer pH 7.8 supplemented with 0.1 mM glutathione (GSH) and stored at −80° C. The assay is performed in phosphate buffered saline (PBS) pH 7.4 and 5 mM GSH in 384-well plates.
The following is added chronologically to each well:
1. 48 μL LTC4 synthase in PBS with 5 mM GSH. The total protein concentration in this solution is 0.5 μg/mL. 2. 1 μL inhibitor in DMSO (final concentration 10 μM). 3. Incubation of the plate at room temperature for 10 min. 4. 1 μL LTA4 (final concentration 2.5 μM). 5. Incubation of the plate at room temperature for 5 min. 6. 10 μL of the incubation mixture is analysed using homogenous time resolved fluorescent (HTRF) detection.

Row | SMILES | IC50 [nM]
1 | CN(c1ccc(Cl)cc1)c1ccc(C(=NO)c2cc(Oc3ccccc3)cc(C(=O)O)c2)cc1 (mixture of isomers) [Example 17, 3-({4-[(4-Chlorophenyl)(methyl)amino]phenyl}(hydroxyimino)methyl)-5-phenoxy-benzoic acid] | 834
2 | CON=C(c1ccc(N(C)c2ccc(Cl)cc2)cc1)c1cc(Oc2ccccc2)cc(C(=O)O)c1 (mixture of isomers) [Example 18, 3-({4-[(4-Chlorophenyl)(methyl)amino]phenyl}(methoxyimino)methyl)-5-phenoxybenzoic acid] | 745
3 | CN(c1ccc(Cl)cc1)c1ccc(C(=O)c2cc(C(=O)O)cc(C(=O)Nc3ccccc3Cl)c2)nc1 [2:2, 3-{5-[(4-Chlorophenyl)(methyl)amino]picolinoyl}-5-(2-chlorophenyl-carbamoyl)-benzoic acid] | 538
4 | CN(c1ccc(Cl)cc1)c1ccc(C(=O)c2cc(C(=O)O)cc(C(=O)Nc3ccc(Cl)cc3)c2)nc1 [2:3, 3-{5-[(4-Chlorophenyl)(methyl)amino]picolinoyl}-5-(4-chlorophenyl-carbamoyl)-benzoic acid] | 343
5 | CN(c1ccc(Cl)cc1)c1ccc(C(=O)c2cc(C(=O)O)cc(C(=O)Nc3cccc(Cl)c3)c2)nc1 [2:4, 3-{5-[(4-Chlorophenyl)(methyl)amino]picolinoyl}-5-(3-chlorophenyl-carbamoyl)-benzoic acid] | 390
6 | CCCCCCNC(=O)c1cc(C(=O)O)cc(C(=O)c2ccc(N(C)c3ccc(Cl)cc3)cn2)c1 [2:5, 3-{5-[(4-Chlorophenyl)(methyl)amino]picolinoyl}-5-(hexylcarbamoyl)benzoic acid] | 102
7 | COc1ccc(NC(=O)c2cc(C(=O)O)cc(C(=O)c3ccc(N(C)c4ccc(Cl)cc4)cn3)c2)cc1 [2:6, 3-{5-[(4-Chlorophenyl)(methyl)amino]picolinoyl}-5-(4-methoxyphenyl-carbamoyl)benzoic acid] | 744
8 | CN(c1ccc(Cl)cc1)c1ccc(C(=O)c2cc(NC(=O)c3ccccc3)cc(C(=O)O)c2)nc1 [2:8, 3-Benzamido-5-{5-[(4-chlorophenyl)(methyl)amino]picolinoyl}benzoic acid] | 214
9 | CN(c1ccc(Cl)cc1)c1ccc(C(=O)c2cc(NC(=O)c3cccc(Cl)c3)cc(C(=O)O)c2)nc1 [2:9, 3-(3-Chlorobenzamido)-5-{5-[(4-chlorophenyl)(methyl)amino]picolinoyl}benzoic acid] | 276
10 | COc1cccc(C(=O)Nc2cc(C(=O)O)cc(C(=O)c3ccc(N(C)c4ccc(Cl)cc4)cn3)c2)c1 [2:10, 3-{5-[(4-Chlorophenyl)(methyl)amino]picolinoyl}-5-(3-methoxybenzamido)-benzoic acid] | 412
11 | CN(c1ccc(Cl)cc1)c1ccc(C(=O)c2cc(C(=O)O)cc(C(=O)Nc3ccc4c(c3)OC(F)(F)O4)c2)cc1 [2:12, 3-{4-[(4-Chlorophenyl)(methyl)amino]benzoyl}-5-[3,4-(difluoromethylene-dioxy)phenylcarbamoyl]benzoic acid] | 424
12 | CN(c1ccc(Cl)cc1)c1ccc(C(=O)c2cc(C(=O)O)cc(C(=O)Nc3ccccc3OC(F)F)c2)cc1 [2:13, 3-{4-[(4-Chlorophenyl)(methyl)amino]benzoyl}-5-[2-(difluoromethoxy)phenyl-carbamoyl]benzoic acid] | 706
13 | COc1ccc(NC(=O)c2cc(C(=O)O)cc(C(=O)c3ccc(N(C)c4ccc(Cl)cc4)cc3)c2)cc1OC [2:14, 3-{4-[(4-Chlorophenyl)(methyl)amino]benzoyl}-5-(3,4-dimethoxyphenyl-carbamoyl)benzoic acid] | 925
14 | CN(c1ccc(Cl)cc1)c1ccc(C(=O)c2cc(C(=O)O)cc(C(=O)Nc3cc(F)ccc3F)c2)cc1 [2:15, 3-{4-[(4-Chlorophenyl)(methyl)amino]benzoyl}-5-(2,5-difluorophenyl-carbamoyl)benzoic acid] | 682
15 | O=C(O)c1cc(Nc2ccc(Cl)cc2)ccc1C(=O)c1ccc(Nc2ccc(C(=O)C3CC3)cc2)cc1 [6:2, 5-(4-Chlorophenylamino)-2-[4-(4-cyclopropylcarbonylphenylamino)-benzoyl]benzoic acid] | 390
16 | CN(c1ccc(Cl)cc1)c1ccc(C(=O)c2ccc(Nc3ccc(Cl)cc3)cc2)c(C(=O)O)c1 [6:3, 2-[4-(4-Chlorophenylamino)benzoyl]-5-[(4-chlorophenyl)(methyl)amino]-benzoic acid] | 224
17 | CN(c1ccc(Cl)cc1)c1ccc(C(=O)c2cc(Oc3ccc(F)c(F)c3)cc(C(=O)O)c2)nc1 [8:2, 3-{5-[(4-Chlorophenyl)(methyl)amino]picolinoyl}-5-(3,4-difluorophenoxy)-benzoic acid] | 41
18 | COc1cccc(Oc2cc(C(=O)O)cc(C(=O)c3ccc(N(C)c4ccc(Cl)cc4)cn3)c2)c1 [8:3, 3-{5-[(4-Chlorophenyl)(methyl)amino]picolinoyl}-5-(3-methoxyphenoxy)benzoic acid] | 188

Row | SMILES | IC50 [nM]
19 | COc1ccccc1Oc1cc(C(=O)O)cc(C(=O)c2ccc(N(C)c3ccc(Cl)cc3)cn2)c1 [8:4, 3-{5-[(4-Chlorophenyl)(methyl)amino]picolinoyl}-5-(2-methoxyphenoxy)benzoic acid] | 525
20 | CN(c1ccc(Cl)cc1)c1ccc(C(=O)c2cc(Oc3ccc(Cl)cc3)cc(C(=O)O)c2)nc1 [8:5, 3-(4-Chlorophenoxy)-5-{5-[(4-chlorophenyl)(methyl)amino]picolinoyl}benzoic acid] | 76
21 | Cc1ccc(Oc2cc(C(=O)O)cc(C(=O)c3ccc(N(C)c4ccc(Cl)cc4)cn3)c2)cc1 [8:6, 3-{5-[(4-Chlorophenyl)(methyl)amino]picolinoyl}-5-(p-tolyloxy)benzoic acid] | 120
22 | CN(c1ccc(Cl)cc1)c1ccc(C(=O)c2cc(Oc3ccc(C#N)cc3)cc(C(=O)O)c2)nc1 [8:7, 3-{5-[(4-Chlorophenyl)(methyl)amino]picolinoyl}-5-(4-cyanophenoxy)benzoic acid] | 274
23 | CN(c1ccc(Cl)cc1)c1ccc(C(=O)c2cc(Oc3ccccc3Cl)cc(C(=O)O)c2)nc1 [8:8, 3-(2-Chlorophenoxy)-{5-[(4-chlorophenyl)(methyl)amino]picolinoyl}benzoic acid] | 77
24 | CN(c1ccc(Cl)cc1)c1ccc(C(=O)c2cc(Oc3cccc(OC(F)(F)F)c3)cc(C(=O)O)c2)cc1 [8:10, 3-{4-[(4-Chlorophenyl)(methyl)amino]benzoyl}-5-[3-(trifluoromethoxy)phenoxy]-benzoic acid] | 171
25 | CN(c1ccc(Cl)cc1)c1ccc(C(=O)c2cc(Oc3ccccc3)cc(C(=O)O)c2)cc1 [8:11, 3-{4-[(4-Chlorophenyl)(methyl)amino]benzoyl}-5-phenoxybenzoic acid] | 61
26 | CN(c1ccc(Cl)cc1)c1ccc(C(=O)c2cc(Oc3ccc4c(c3)OCO4)cc(C(=O)O)c2)cc1 [8:12, 5-{4-[(4-Chlorophenyl)(methyl)amino]benzoyl}-3-(3,4-methylenedioxyphenoxy)-benzoic acid] | 109
27 | CN(c1ccc(Cl)cc1)c1ccc(C(=O)c2cc(Oc3cccc(F)c3)cc(C(=O)O)c2)cc1 [8:13, 3-{4-[(4-Chlorophenyl)(methyl)amino]benzoyl}-5-(3-fluorophenoxy)benzoic acid] | 59
28 | COc1cccc(Oc2cc(C(=O)O)cc(C(=O)c3ccc(N(C)c4ccc(Cl)cc4)cc3)c2)c1 [8:14, 3-{4-[(4-Chlorophenyl)(methyl)amino]benzoyl}-5-(3-methoxyphenoxy)benzoic acid] | 143
29 | CCN(CC)c1ccc(Oc2cc(C(=O)O)cc(C(=O)c3ccc(N(C)c4ccc(Cl)cc4)cc3)c2)cc1 [8:15, 3-{4-[(4-Chlorophenyl)(methyl)amino]benzoyl}-5-(4-(diethylamino)phenoxy)-benzoic acid] | 183
30 | CN(c1ccc(Cl)cc1)c1ccc(C(=O)c2cc(Oc3ccc(C(C)(C)C)cc3)cc(C(=O)O)c2)cc1 [8:16, 3-(4-tert-Butylphenoxy)-5-{4-[(4-chlorophenyl)(methyl)amino]benzoyl}benzoic acid] | 159
31 | Cc1ccccc1Oc1cc(C(=O)O)cc(C(=O)c2ccc(N(C)c3ccc(Cl)cc3)cc2)c1 [8:17, 3-{4-[(4-Chlorophenyl)(methyl)amino]benzoyl}-5-(o-tolyloxy)benzoic acid] | 198
32 | CN(c1ccc(Cl)cc1)c1ccc(C(=O)c2cc(Oc3ccccc3Cl)cc(C(=O)O)c2)cc1 [8:19, 3-(2-Chlorophenoxy)-5-{4-[(4-chlorophenyl)(methyl)amino]benzoyl}benzoic acid] | 80
33 | CN(c1ccc(Cl)cc1)c1ccc(C(=O)c2cc(Oc3cccc(Cl)c3)cc(C(=O)O)c2)cc1 [8:20, 3-(3-Chlorophenoxy)-5-{4-[(4-chlorophenyl)(methyl)amino]benzoyl}benzoic acid] | 87
34 | CN(c1ccc(Cl)cc1)c1ccc(C(=O)c2cc(Oc3ccc(Cl)cc3)cc(C(=O)O)c2)cc1 [8:21, 3-(4-Chlorophenoxy)-5-{4-[(4-chlorophenyl)(methyl)amino]benzoyl}benzoic acid] | 49
35 | CN(c1ccc(Cl)cc1)c1ccc(C(=O)c2cc(C(=O)O)cc(N(C)c3ccc(Cl)cc3)c2)nc1 [9:3, 3-[(4-Chlorophenyl)(methyl)amino]-5-{5-[(4-chlorophenyl)(methyl)amino]-picolinoyl}benzoic acid] | 45

Same assay, conditions: 5 min; total concentration of title compound in the assay 10 μM

Row | SMILES | inhibition at 10 µM [%]
36 | O=C(O)c1cc(Nc2ccc(Cl)cc2)ccc1C(=O)c1ccc(Nc2ccc(C(=O)C3CC3)cc2)cc1 [6:2, 5-(4-Chlorophenylamino)-2-[4-(4-cyclopropylcarbonylphenylamino)-benzoyl]benzoic acid] | 100
37 | CN(c1ccc(Cl)cc1)c1ccc(C(=O)c2ccc(Nc3ccc(Cl)cc3)cc2)c(C(=O)O)c1 [6:3, 2-[4-(4-Chlorophenylamino)benzoyl]-5-[(4-chlorophenyl)(methyl)amino]-benzoic acid] | 99
